Experimental data published in paper PMC12595434, “Development of retinoid nuclear receptor pathway antagonists through targeting aldehyde dehydrogenase 1A3” (iScience, 2025).
Several values for one entry are separate records, joined by “and”; a condition that tells them apart may be missing. Equal values may be shown once.

Legend:
Ca2+-L = experiment: Off-target profiling panel; type: binding; conditions: 10 μM
H2 = H2 (Homo sapiens, UniProt P25021); experiment: Off-target profiling panel; type: binding; conditions: read-out: Inhibition by MBE1 at 10 μM (%)
M3 = M3 (Homo sapiens, UniProt P20309); experiment: Off-target profiling panel; type: binding; conditions: read-out: Inhibition by MBE1 at 10 μM (%)
PVRL1 = target: T1, PVRL1 (Homo sapiens, UniProt Q15223); experiment: Thermal proteome profiling (TPP) in A375 cells; type: cell-based; conditions: PVRL1, 1 uM
T1 construct: Treated A375 cells were harvested from 10 × 15 cm plates; endogenous in cells; host or cells: A375 melanoma cells

Beta1 = Beta1 (Homo sapiens, UniProt P08588); experiment: Off-target profiling panel; type: binding; conditions: read-out: Inhibition by MBE1 at 10 μM (%)
CB2 = CB2 (Homo sapiens, UniProt P34972); experiment: Off-target profiling panel; type: binding; conditions: read-out: Inhibition by MBE1 at 10 μM (%)
M1 = M1 (Homo sapiens, UniProt P11229); experiment: biochemical; type: binding; conditions: read-out: Inhibition by MBE1 at 10 μM (%)
CB1 = CB1 (Homo sapiens, UniProt P21554); experiment: Off-target profiling panel; type: binding; conditions: read-out: Inhibition by MBE1 at 10 μM (%)
ADORA2A = ADORA2A (Homo sapiens, UniProt P29274); experiment: Off-target profiling panel; type: binding; conditions: read-out: Inhibition by MBE1 at 10 μM (%)
nACHR-Alpha7 = nACHR-Alpha7 (Homo sapiens, UniProt P36544); experiment: biochemical; type: binding; conditions: read-out: Inhibition by MBE1 at 10 μM (%)
AsPC-1 cells = experiment: Metabolomic profiling of treated cell lines (raw metabolite counts); type: cell-based; conditions: AsPC-1:MBE, replicates
Text: Supplement mmc8.xlsx, sheet "Supplement Table 7" | column: AsPC-1:MBE

MDA-MB-468 cells = conditions: MDA-MB-468, 24 hour incubation, highest tested dose 10 μM
M2 = M2 (Homo sapiens, UniProt P08172); experiment: Off-target profiling panel; type: binding; conditions: read-out: Inhibition by MBE1 at 10 μM (%)
NPTN = experiment: Cellular thermal shift assay (CETSA) in A375 cells; type: cell-based, human; conditions: 100 nM, 1h at 37°C
Procedure: CETSA was performed according to protocols described before.[85] Briefly, 6 × 10cm dishes of A375 cells were collected and treated with 100 nM MBE1 or 0.1% DMSO for 1h at 37°C. Afterward, cells were pelleted through centrifugation at 300g for 5 min. Cells were then washed with ice-cold PBS and resuspended in 800 μL of PBS. Cell suspension was aliquoted to 7xPCR tubes with 100 μL each and subjected to thermal denaturation at 46.3, 48.6, 52.2, 56.5, 60.1, 62.5, 64.0°C for 3 min. The resulting sample was snap frozen in liquid nitrogen followed by incubation at room temperature until fully thawed. This procedure was performed twice followed by brief vortexing and mixing to release soluble proteins from the cells. Samples were then transferred to 1.5 mL Eppendorf tubes and centrifuged at 20,000g for 20 min at 4°C, 90 μL of the resulting supernatant was collected into another new 1.5 mL Eppendorf tube and subjected to protein analysis by western blot (WB). NPTN (proteintech #28022-1-AP) and ALDH1A3 (abcam #ab129815) were used to detect target proteins while GelCode Blue Stain Reagent (Thermofisher scientific #24590) was used to stain for total proteins loaded in the WB analysis.

op-mu = op-mu (Homo sapiens, UniProt P35372); experiment: Off-target profiling panel; type: binding; conditions: read-out: Inhibition by MBE1 at 10 μM (%)
CCKa = CCKa (Homo sapiens, UniProt P32238); experiment: Off-target profiling panel; type: binding; conditions: read-out: Inhibition by MBE1 at 10 μM (%)
FAM204A = target: T2, FAM204A (Homo sapiens, UniProt Q9H8W3); experiment: Thermal proteome profiling (TPP) in A375 cells; type: cell-based
T2 construct: Treated A375 cells were harvested from 10 × 15 cm plates; endogenous in cells; host or cells: A375 melanoma cells

MARCKSL1 = target: T3, MARCKSL1 (Homo sapiens, UniProt P49006); experiment: Thermal proteome profiling (TPP) in A375 cells; type: cell-based; conditions: MARCKSL1, 1 uM
T3 construct: Treated A375 cells were harvested from 10 × 15 cm plates; endogenous in cells; host or cells: A375 melanoma cells

Beta2 = Beta2 (Homo sapiens, UniProt P07550); experiment: Off-target profiling panel; type: binding; conditions: read-out: Inhibition by MBE1 at 10 μM (%)
PDE4D2 = PDE4D2 (Homo sapiens, UniProt Q08499); experiment: Off-target profiling panel; type: biochemical; conditions: read-out: Inhibition by MBE1 at 10 μM (%)
Alpha1A = Alpha1A (Homo sapiens, UniProt P35348); experiment: Off-target profiling panel; type: binding; conditions: read-out: Inhibition by MBE1 at 10 μM (%)
D1 = D1 (Homo sapiens, UniProt P21728); experiment: Off-target profiling panel; type: binding; conditions: read-out: Inhibition by MBE1 at 10 μM (%)
AR = AR (Homo sapiens, UniProt P10275); experiment: Off-target profiling panel; type: binding; conditions: read-out: Inhibition by MBE1 at 10 μM (%)
HaCaT cells = experiment: Dose-titration cytotoxicity analysis; conditions: 24 hour incubation, highest tested dose 10 μM
[1] = system: panel of cancer cell lines; experiment: 48 h proliferation, WST-8 tetrazolium dye assay; type: cell-based, human; conditions: 48-h proliferation assays, 23 cell lines
ALDH1A3 mRNA = experiment: RT-qPCR of ALDH1A3 mRNA after treatment; type: cell-based, human; conditions: multiple cell lines

T1 sequence (Q15223 31-517): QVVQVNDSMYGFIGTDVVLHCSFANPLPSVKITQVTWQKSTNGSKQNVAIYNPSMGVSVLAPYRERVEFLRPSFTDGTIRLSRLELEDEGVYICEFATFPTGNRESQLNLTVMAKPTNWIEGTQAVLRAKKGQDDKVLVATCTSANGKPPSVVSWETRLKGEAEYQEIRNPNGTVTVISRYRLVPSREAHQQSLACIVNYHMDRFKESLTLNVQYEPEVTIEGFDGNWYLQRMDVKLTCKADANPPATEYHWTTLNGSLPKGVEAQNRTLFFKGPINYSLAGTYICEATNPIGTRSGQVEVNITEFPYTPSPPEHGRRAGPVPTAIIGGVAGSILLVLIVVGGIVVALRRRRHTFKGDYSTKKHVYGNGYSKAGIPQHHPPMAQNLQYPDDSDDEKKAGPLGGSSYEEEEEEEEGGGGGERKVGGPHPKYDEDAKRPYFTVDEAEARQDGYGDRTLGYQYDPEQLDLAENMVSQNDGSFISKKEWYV
T2 sequence (Q9H8W3 whole entry): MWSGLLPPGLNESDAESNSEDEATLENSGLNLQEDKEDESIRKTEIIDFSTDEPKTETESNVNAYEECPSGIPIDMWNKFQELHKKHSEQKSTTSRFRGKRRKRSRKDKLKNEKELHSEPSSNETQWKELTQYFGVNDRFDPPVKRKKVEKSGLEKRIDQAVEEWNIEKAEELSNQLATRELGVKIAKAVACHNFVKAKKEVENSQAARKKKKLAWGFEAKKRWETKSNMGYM
ADORA2A, sequence (P29274 whole entry): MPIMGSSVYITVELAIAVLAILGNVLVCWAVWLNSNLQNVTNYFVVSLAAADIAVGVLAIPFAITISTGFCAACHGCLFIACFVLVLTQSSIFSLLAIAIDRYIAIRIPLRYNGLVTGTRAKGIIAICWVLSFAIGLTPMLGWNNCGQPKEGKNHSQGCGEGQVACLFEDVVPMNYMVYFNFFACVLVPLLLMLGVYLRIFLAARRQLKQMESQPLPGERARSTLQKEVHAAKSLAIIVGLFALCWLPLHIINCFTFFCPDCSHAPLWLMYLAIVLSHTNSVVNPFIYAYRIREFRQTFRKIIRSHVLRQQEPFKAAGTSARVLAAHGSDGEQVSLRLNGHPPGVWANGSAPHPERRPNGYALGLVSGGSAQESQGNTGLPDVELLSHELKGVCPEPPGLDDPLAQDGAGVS
H2, sequence (P25021 whole entry): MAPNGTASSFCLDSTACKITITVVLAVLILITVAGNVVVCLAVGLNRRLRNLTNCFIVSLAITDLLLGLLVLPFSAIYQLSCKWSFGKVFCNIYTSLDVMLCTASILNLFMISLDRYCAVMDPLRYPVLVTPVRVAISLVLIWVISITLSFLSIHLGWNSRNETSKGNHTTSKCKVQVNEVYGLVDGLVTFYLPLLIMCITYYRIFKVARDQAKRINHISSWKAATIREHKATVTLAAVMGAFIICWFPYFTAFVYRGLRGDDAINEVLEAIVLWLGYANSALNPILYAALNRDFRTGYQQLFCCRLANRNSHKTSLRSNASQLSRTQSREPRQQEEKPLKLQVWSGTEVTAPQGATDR
CB1, sequence (P21554 whole entry): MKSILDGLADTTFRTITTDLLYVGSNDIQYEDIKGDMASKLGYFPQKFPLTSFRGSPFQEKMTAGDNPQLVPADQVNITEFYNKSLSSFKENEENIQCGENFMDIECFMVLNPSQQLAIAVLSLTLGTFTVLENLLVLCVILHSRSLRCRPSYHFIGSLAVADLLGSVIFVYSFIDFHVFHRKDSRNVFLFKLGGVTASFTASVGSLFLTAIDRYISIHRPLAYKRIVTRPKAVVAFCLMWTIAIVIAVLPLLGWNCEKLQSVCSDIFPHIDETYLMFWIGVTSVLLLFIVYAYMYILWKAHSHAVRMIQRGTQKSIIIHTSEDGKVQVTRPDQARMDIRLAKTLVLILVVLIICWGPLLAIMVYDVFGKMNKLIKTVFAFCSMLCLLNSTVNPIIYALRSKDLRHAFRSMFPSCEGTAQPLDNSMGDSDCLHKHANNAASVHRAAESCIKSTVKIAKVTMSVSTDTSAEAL
CB2, sequence (P34972 whole entry): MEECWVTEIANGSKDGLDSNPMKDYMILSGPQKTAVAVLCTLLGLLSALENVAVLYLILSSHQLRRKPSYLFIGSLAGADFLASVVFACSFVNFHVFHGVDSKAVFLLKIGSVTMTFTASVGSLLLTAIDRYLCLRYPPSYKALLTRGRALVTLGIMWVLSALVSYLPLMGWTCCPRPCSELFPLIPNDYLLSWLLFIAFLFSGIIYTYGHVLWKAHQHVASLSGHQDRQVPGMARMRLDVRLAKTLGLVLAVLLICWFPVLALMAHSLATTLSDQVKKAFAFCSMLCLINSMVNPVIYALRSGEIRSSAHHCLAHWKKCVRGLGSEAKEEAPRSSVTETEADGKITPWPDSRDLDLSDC
nACHR-Alpha7, sequence (P36544 23-502): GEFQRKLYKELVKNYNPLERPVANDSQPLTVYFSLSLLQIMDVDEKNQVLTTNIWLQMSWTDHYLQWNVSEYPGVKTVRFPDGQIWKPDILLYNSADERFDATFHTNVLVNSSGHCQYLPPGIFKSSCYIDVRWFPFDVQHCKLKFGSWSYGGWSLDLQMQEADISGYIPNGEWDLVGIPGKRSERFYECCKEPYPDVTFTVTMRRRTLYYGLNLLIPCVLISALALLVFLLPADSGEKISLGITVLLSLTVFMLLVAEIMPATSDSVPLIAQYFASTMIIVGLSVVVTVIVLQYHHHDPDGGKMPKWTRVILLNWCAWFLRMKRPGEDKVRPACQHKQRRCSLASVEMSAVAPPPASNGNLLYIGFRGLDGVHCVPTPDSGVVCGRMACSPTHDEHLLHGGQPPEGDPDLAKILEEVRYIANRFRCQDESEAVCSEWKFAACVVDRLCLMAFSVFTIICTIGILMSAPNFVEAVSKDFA
T3 sequence (P49006 whole entry): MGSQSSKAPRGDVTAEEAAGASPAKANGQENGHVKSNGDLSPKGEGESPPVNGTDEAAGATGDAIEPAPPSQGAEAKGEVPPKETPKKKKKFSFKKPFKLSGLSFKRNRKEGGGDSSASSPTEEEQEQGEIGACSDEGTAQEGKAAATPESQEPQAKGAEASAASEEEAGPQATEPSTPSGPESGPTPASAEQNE
M1, sequence (P11229 whole entry): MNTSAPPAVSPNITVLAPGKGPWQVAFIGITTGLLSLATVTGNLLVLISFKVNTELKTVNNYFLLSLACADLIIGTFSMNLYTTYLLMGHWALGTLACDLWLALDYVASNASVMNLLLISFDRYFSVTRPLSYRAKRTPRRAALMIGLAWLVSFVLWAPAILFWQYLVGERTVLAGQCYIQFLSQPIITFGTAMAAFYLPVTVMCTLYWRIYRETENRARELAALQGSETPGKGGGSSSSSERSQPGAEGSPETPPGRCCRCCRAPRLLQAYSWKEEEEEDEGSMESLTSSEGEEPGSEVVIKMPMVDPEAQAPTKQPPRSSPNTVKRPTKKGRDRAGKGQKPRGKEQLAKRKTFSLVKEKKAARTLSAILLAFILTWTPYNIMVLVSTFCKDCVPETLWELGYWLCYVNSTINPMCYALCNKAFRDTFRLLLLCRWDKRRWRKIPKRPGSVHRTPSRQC
CCKa, sequence (P32238 whole entry): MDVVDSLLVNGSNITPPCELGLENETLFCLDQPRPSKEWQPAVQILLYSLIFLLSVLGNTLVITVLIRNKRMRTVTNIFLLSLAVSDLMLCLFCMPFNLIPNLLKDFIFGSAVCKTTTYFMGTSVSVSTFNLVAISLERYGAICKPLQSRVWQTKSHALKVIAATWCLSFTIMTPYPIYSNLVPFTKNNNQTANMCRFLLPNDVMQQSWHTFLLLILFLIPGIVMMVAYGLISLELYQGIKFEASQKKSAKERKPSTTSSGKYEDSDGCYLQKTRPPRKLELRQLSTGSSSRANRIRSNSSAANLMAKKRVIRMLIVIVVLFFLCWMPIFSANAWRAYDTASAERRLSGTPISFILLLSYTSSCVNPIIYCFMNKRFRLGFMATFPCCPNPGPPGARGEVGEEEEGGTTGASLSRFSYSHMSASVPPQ
M2, sequence (P08172 whole entry): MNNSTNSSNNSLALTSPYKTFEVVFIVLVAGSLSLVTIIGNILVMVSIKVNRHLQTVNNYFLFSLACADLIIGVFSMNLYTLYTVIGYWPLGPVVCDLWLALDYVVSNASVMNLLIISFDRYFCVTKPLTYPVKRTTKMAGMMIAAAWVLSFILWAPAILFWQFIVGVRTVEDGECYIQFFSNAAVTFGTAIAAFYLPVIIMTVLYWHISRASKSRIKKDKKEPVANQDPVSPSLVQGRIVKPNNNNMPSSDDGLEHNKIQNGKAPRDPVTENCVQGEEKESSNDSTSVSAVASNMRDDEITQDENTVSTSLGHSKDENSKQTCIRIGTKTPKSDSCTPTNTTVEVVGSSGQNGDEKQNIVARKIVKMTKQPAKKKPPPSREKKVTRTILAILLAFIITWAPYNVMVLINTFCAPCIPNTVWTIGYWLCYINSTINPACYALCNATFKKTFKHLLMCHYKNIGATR
op-mu, sequence (P35372 whole entry): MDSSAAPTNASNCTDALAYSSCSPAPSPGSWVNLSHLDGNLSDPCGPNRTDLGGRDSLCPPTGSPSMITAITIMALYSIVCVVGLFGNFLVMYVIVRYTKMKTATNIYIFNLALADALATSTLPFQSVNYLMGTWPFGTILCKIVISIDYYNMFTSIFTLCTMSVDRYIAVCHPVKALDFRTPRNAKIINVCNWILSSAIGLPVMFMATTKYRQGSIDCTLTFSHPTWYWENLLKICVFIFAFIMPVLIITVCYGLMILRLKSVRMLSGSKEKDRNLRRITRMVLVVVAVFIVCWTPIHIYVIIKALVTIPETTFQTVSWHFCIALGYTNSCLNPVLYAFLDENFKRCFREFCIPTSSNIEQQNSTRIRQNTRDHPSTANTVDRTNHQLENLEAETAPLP

**Q.** What does the source list for `CCc1cnccc1C(=O)Nc1cc2c(cc1F)NC(=O)CC2` [MBE1, 3-ethyl-N-(7-fluoro-2-oxo-3,4-dihydro-1H-quinolin-6-yl)pyridine-4-carboxamide]?
**A.** Inhibition by MBE1 at 10 μM (%) (Ca2+-L): −0.09%; inhibition at 10 µM (H2): 4.29%; inhibition at 10 µM (M3): -13.4%; ΔTm at 1 µM (PVRL1; A-375, read-out: DMSO-1uM MBE1 TM shift): -15.1 °C; 1uM MBE1 Tm (PVRL1): 64; inhibition at 10 µM (Beta1): -8.49%; inhibition at 10 µM (CB2): 5.07%; inhibition at 10 µM (M1): -7.68%; inhibition at 10 µM (CB1): -7.11%; inhibition at 10 µM (ADORA2A): -15.7%; inhibition at 10 µM (nACHR-Alpha7): -9.85%; Raw counts of 2-Hydroxybutyric acid (AsPC-1 cells): 407527 and 409338 and 391016; Raw counts of 3-Hydroxybutyric acid (AsPC-1 cells): 935326 and 777510 and 811161; Raw counts of 3-Phosphoglycerate (AsPC-1 cells): 27569.7 and 29653.8 and 33692.4; Raw counts of 3-Phosphoserine (AsPC-1 cells): 0; Raw counts of 6-Phosphogluconate (AsPC-1 cells): 2283.86 and 2700.65 and 2716.13; Raw counts of Carbamoyl phosphate (AsPC-1 cells): 77497 and 91797.1 and 80487.7; Raw counts of Citrulline (AsPC-1 cells): 767940 and 822514 and 761078; Raw counts of Cytidine (AsPC-1 cells): 42547.3 and 33951.9 and 31568.3; Raw counts of Hypoxanthine (AsPC-1 cells): 6602890 and 6349420 and 6667202; Raw counts of Isoleucine (AsPC-1 cells): 8463643 and 7729570 and 8029520; Raw counts of Lactate (AsPC-1 cells): 2.84E+08 and 2.40E+08 and 2.49E+08; Raw counts of Leucine (AsPC-1 cells): 1.56E+07 and 1.48E+07 and 1.55E+07; Raw counts of Methionine (AsPC-1 cells): 3519797 and 3454298 and 3337800; Raw counts of N-acetyl-glutamine (AsPC-1 cells): 14303 and 11323.4 and 0; Raw counts of Orotate (AsPC-1 cells): 62546.3 and 65785 and 58119.5; Raw counts of Phenylalanine (AsPC-1 cells): 9403483 and 9101309 and 9197218; Raw counts of Phosphoenolpyruvate (AsPC-1 cells): 23786.2 and 24455.1 and 27616; Raw counts of Pyridoxine (AsPC-1 cells): 1078977 and 951150 and 1075404; Raw counts of Pyruvate (AsPC-1 cells): 3.56E+07 and 3.45E+07 and 3.67E+07; Raw counts of Ribitol (AsPC-1 cells): 1829543 and 1600997 and 2014101; Raw counts of Sorbitol (AsPC-1 cells): 2.37E+07 and 2.26E+07 and 2.62E+07; Raw counts of Taurine (AsPC-1 cells): 5285632 and 4263876 and 4897168; Raw counts of Tryptophan (AsPC-1 cells): 2709598 and 2662217 and 2730749; Raw counts of Tyrosine (AsPC-1 cells): 5411932 and 5220208 and 5418708; Raw counts of UDP (AsPC-1 cells): 31905 and 38800.3 and 38337.9; Raw counts of Uracil (AsPC-1 cells): 1743558 and 1602379 and 1692033; Raw counts of Uridine (AsPC-1 cells): 1071683 and 996648 and 1101788; Raw counts of Valine (AsPC-1 cells): 1.20E+07 and 1.17E+07 and 1.23E+07; Raw counts of Xanthine (AsPC-1 cells): 6452708 and 5994216 and 6427826; nonspecific cytotoxicity (in words) (MDA-MB-468 cells): nontoxic; inhibition at 10 µM (M2): -6.51%; stabilization of NPTN in CETSA (in words) (NPTN): not stabilized; inhibition at 10 µM (op-mu): 3.98%; inhibition at 10 µM (CCKa): -1.45%; 100nM MBE1 Tm (FAM204A): 63.4426; DMSO-100nM MBE1 TM (FAM204A): -8.6993; 1uM MBE1 Tm (MARCKSL1): 64; inhibition at 10 µM (Beta2): 3.23%; inhibition at 10 µM (PDE4D2): 11.8%; inhibition at 10 µM (Alpha1A): -3.34%; inhibition at 10 µM (D1): -16.4%; inhibition at 10 µM (AR): -10.1%; nonspecific cytotoxicity (in words) (HaCaT cells): nontoxic

**Q.** Which results are given for `CCc1ccccc1C(=O)Nc1cc2c(cc1F)NC(=O)CC2` [MBE1.5, 2-ethyl-N-(7-fluoro-2-oxo-3,4-dihydro-1H-quinolin-6-yl)benzamide]?
**A.** effect on growth or survival (in words) [1]: no detectable effect; feedback effect on ALDH1A3 expression (in words) (ALDH1A3 mRNA): no feedback effect
